Source: patent US20230022157A1 (Achillion Pharmaceuticals, Inc., priority 2018, published 2023)

target: T1, Human Factor D (Homo sapiens, UniProt P00746); experiment: Human Factor D Assay; format: biochemical; details: Human Factor D 80 nM, substrate Z-L-Lys-SBzl, assay of Example 3; read-out: IC50 (Stars)
T1 construct: purified from human serum; purchased Complement Technology, Inc; host or cells: human serum (natural protein, not recombinant)
Procedure, shortened: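 Serum-purified human factor D (80 nM final) preincubated 5 min at room temperature with test compound in 50 mM Tris, 1M NaCl, pH 7.5. Z-L-Lys-SBzl substrate and DTNB then added, each at 100 μM final. IC50 from nonlinear regression of reaction rate against compound concentration.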

T1 sequence (P00746 26-253): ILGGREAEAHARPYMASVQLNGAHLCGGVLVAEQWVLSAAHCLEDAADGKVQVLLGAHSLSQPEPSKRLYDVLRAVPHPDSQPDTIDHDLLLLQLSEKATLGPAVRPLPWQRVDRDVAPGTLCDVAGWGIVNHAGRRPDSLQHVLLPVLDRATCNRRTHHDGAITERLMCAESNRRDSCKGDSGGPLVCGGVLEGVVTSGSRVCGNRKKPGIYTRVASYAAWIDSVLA

Row | IC50 [µM] | SMILES
1 | < 1 | COC(=O)c1ncc(-c2cc(C)c3c(c2)c(C(C)=O)nn3CC(=O)N2[C@H](C(=O)Nc3nc(Br)ccc3C)C[C@@]3(C)C[C@@H]23)cn1 [Compound 38, methyl 5-(3-acetyl-1-(2-((1R,3S,5R)-3-((6-bromo-3-methylpyridin-2-yl)carbamoyl)-5-methyl-2-azabicyclo[3.1.0]hexan-2-yl)-2-oxoethyl)-7-methyl-1H-indazol-5-yl)pyrimidine-2-carboxylate]
2 | < 1 | CC(=O)c1nn(CC(=O)N2[C@H](C(=O)Nc3nc(C(F)(F)F)ccc3C)C[C@@]3(C)C[C@@H]23)c2ccc(-c3cncc(S(N)(=O)=O)c3)cc12 [Compound 22, (1R,3S,5R)-2-(2-(3-Acetyl-5-(5-sulfamoylpyridin-3-yl)-1H-indazol-1-yl)acetyl)-5-methyl-N-(3-methyl-6-(trifluoromethyl)pyridin-2-yl)-2-azabicyclo[3.1.0]hexane-3-carboxamide]

same assay, conditions: Human Factor D 80 nM, substrate Z-L-Lys-SBzl; Table 2; read-out: IC50 (Stars)

Row | SMILES | IC50 [µM]
3 | CC(=O)c1nn(CC(=O)N2[C@H](C(=O)Nc3nc(Br)c(F)cc3C)C[C@@]3(C)C[C@@H]23)c2c(C)cc(-c3cnc(C(C)O)cn3)cc12 (stereo partly drawn) [Compound 204, (1R,3S,5R)-2-(2-(3-acetyl-5-(5-(1-hydroxyethyl)pyrazin-2-yl)-7-methyl-1H-indazol-1-yl)acetyl)-N-(6-bromo-5-fluoro-3-methylpyridin-2-yl)-5-methyl-2-azabicyclo[3.1.0]hexane-3-carboxamide] | < 1
4 | CC(=O)c1nn(CC(=O)N2[C@H](C(=O)NCCC3(C)OCCO3)C[C@@]3(C)C[C@@H]23)c2c(C)cc(-c3cnc(C)nc3)cc12 [Compound 145, (1R,3S,5R)-2-{2-[3-acetyl-7-methyl-5-(2-methylpyrimidin-5-yl)indazol-1-yl]acetyl}-5-methyl-N-[2-(2-methyl-1,3-dioxolan-2-yl)ethyl]-2-azabicyclo[3.1.0]hexane-3-carboxamide] | < 1
5 | CC(=O)c1nn(CC(=O)N2[C@H](C(=O)NC3CCC4(CC3)OCCO4)C[C@@]3(C)C[C@@H]23)c2c(C)cc(-c3cnc(C)nc3)cc12 [Compound 138, (1R,3S,5R)-2-{2-[3-acetyl-7-methyl-5-(2-methylpyrimidin-5-yl)indazol-1-yl]acetyl}-N-{1,4-dioxaspiro[4.5]decan-8-yl}-5-methyl-2-azabicyclo[3.1.0]hexane-3-carboxamide] | > 10
6 | CC(=O)c1nn(CC(=O)N2[C@H](C(=O)Nc3nc(Br)c(F)cc3C)C[C@@]3(C)C[C@@H]23)c2c(C)cc(-c3cnc(C(C)(C)O)nc3)cc12 [Compound 68, (1R,3S,5R)-2-(2-(3-acetyl-5-(2-(2-hydroxypropan-2-yl)pyrimidin-5-yl)-7-methyl-1H-indazol-1-yl)acetyl)-N-(6-bromo-5-fluoro-3-methylpyridin-2-yl)-5-methyl-2-azabicyclo[3.1.0]hexane-3-carboxamide] | < 1
7 | CC(=O)c1nn(CC(=O)N2[C@H](C(=O)NCC3(C)CCCCC3)C[C@@]3(C)C[C@@H]23)c2c(C)cc(-c3cnc(C)nc3)cc12 [Compound 90, (1R,3S,5R)-2-{2-[3-acetyl-7-methyl-5-(2-methylpyrimidin-5-yl)indazol-1-yl]acetyl}-5-methyl-N-[(1-methylcyclohexyl)methyl]-2-azabicyclo[3.1.0]hexane-3-carboxamide] | < 1
8 | CC(=O)c1nn(CC(=O)N2[C@H](C(=O)NCc3ccc4c(c3)CCCC4)C[C@@]3(C)C[C@@H]23)c2c(C)cc(-c3cnc(C)nc3)cc12 [Compound 150, (1R,3S,5R)-2-{2-[3-acetyl-7-methyl-5-(2-methylpyrimidin-5-yl)indazol-1-yl]acetyl}-5-methyl-N-(5,6,7,8-tetrahydronaphthalen-2-ylmethyl)-2-azabicyclo[3.1.0]hexane-3-carboxamide] | < 1
9 | CC(=O)c1cn(CC(=O)N2[C@H](C(=O)Nc3nc(Br)ccc3C)C[C@@]3(C)C[C@@H]23)c2c(C)cc(-c3cnc(CF)nc3)cc12 [Compound 221, (1R,3S,5R)-2-(2-(3-acetyl-5-(2-(fluoromethyl)pyrimidin-5-yl)-7-methyl-1H-indol-1-yl)acetyl)-N-(6-bromo-3-methylpyridin-2-yl)-5-methyl-2-azabicyclo[3.1.0]hexane-3-carboxamide] | < 1
10 | CC(=O)c1cn(CC(=O)N2[C@H](C(=O)Nc3nc(C(F)(F)F)ccc3C)C[C@@]3(C)C[C@@H]23)c2c(C)cc(-c3cnc4cc(C5CC5)nn4c3)cc12 [Compound 196, (1R,3S,5R)-2-(2-(3-acetyl-5-(2-cyclopropylpyrazolo[1,5-a]pyrimidin-6-yl)-7-methyl-1H-indol-1-yl)acetyl)-5-methyl-N-(3-methyl-6-(trifluoromethyl)pyridin-2-yl)-2-azabicyclo[3.1.0]hexane-3-carboxamide] | < 1
11 | Cc1ncc(-c2cc3c(C(N)=O)nn(CC(=O)N4[C@H](C(=O)Nc5nc(Br)ccc5C5CC5)C[C@@]5(C)C[C@@H]45)c3c(C)n2)cn1 [Compound 112, 1-{2-[3-(6-Bromo-3-cyclopropyl-pyridin-2-ylcarbamoyl)-5-methyl-2-aza-bicyclo[3.1.0]hex-2-yl]-2-oxo-ethyl}-7-methyl-5-(2-methyl-pyrimidin-5-yl)-1H-pyrazolo[3,4-c]pyridine-3-carboxylic acid amide] | < 1

Next, values leading:

Row | IC50 [µM] | SMILES
12 | < 1 | CC(=O)c1nn(CC(=O)N2[C@H](C(=O)Nc3nc(Br)ccc3C)C[C@@]3(C)C[C@@H]23)c2c(C)cc(-c3ccc(CO)nc3)cc12 [Compound 82, (1R,3S,5R)-2-(2-(3-acetyl-5-(6-(hydroxymethyl)pyridin-3-yl)-7-methyl-1H-indazol-1-yl)acetyl)-N-(6-bromo-3-methylpyridin-2-yl)-5-methyl-2-azabicyclo[3.1.0]hexane-3-carboxamide]
13 | < 1 | CC(=O)c1cn(CC(=O)N2[C@H](C(=O)Nc3nc(Br)ccc3C)C[C@@]3(C)C[C@@H]23)c2c(C)cc(-c3cnc4cc(C)nn4c3)cc12 [Compound 198, (1R,3S,5R)-2-(2-(3-acetyl-7-methyl-5-(2-methylpyrazolo[1,5-a]pyrimidin-6-yl)-1H-indol-1-yl)acetyl)-N-(6-bromo-3-methylpyridin-2-yl)-5-methyl-2-azabicyclo[3.1.0]hexane-3-carboxamide]
14 | < 1 | CC(=O)c1nn(CC(=O)N2[C@H](C(=O)Nc3nc(Br)ccc3C3CC3)C[C@@]3(C)C[C@@H]23)c2c(C)cc(-c3cnc(CO)nc3)cc12 [Compound 66, (1R,3S,5R)-2-(2-(3-acetyl-5-(2-(hydroxymethyl)pyrimidin-5-yl)-7-methyl-11H-indazol-1-yl)acetyl)-N-(6-bromo-3-cyclopropylpyridin-2-yl)-5-methyl-2-azabicyclo[3.1.0]hexane-3-carboxamide]
15 | < 1 | CC(=O)c1nn(CC(=O)N2[C@H](C(=O)Nc3cc(F)cc(Br)n3)C[C@@]3(C)C[C@@H]23)c2c(C)cc(-c3cnc(C(C)O)nc3)cc12 (stereo partly drawn) [Compound 124, (1R,3S,5R)-2-(2-(3-acetyl-5-(2-(1-hydroxyethyl)pyrimidin-5-yl)-7-methyl-1H-indazol-1-yl)acetyl)-N-(6-bromo-4-fluoropyridin-2-yl)-5-methyl-2-azabicyclo[3.1.0]hexane-3-carboxamide]
16 | < 1 | CC(=O)c1nn(CC(=O)N2[C@H](C(=O)Nc3cncc(Br)n3)C[C@@]3(C)C[C@@H]23)c2c(C)cc(-c3ccc(CO)nc3)cc12 [Compound 119, (1R,3S,5R)-2-(2-(3-acetyl-5-(6-(hydroxymethyl)pyridin-3-yl)-7-methyl-1H-indazol-1-yl)acetyl)-N-(6-bromopyrazin-2-yl)-5-methyl-2-azabicyclo[3.1.0]hexane-3-carboxamide]
17 | < 1 | CC(=O)c1nn(CC(=O)N2[C@H](C(=O)NC(C)Cc3ccc(O)cc3)C[C@@]3(C)C[C@@H]23)c2c(C)cc(-c3cnc(C)nc3)cc12 (stereo partly drawn) [Compound 147, (1R,3S,5R)-2-{2-[3-acetyl-7-methyl-5-(2-methylpyrimidin-5-yl)indazol-1-yl]acetyl}-N-[1-(4-hydroxyphenyl)propan-2-yl]-5-methyl-2-azabicyclo[3.1.0]hexane-3-carboxamide]
18 | < 1 | CC(=O)c1cn(CC(=O)N2[C@H](C(=O)Nc3ccc(F)c(Br)n3)C[C@@]3(C)C[C@@H]23)c2c(C)cc(-c3cnc(C)nc3)cc12 [Compound 194, (1R,3S,5R)-2-(2-(3-acetyl-7-methyl-5-(2-methylpyrimidin-5-yl)-1H-indol-1-yl)acetyl)-N-(6-bromo-5-fluoropyridin-2-yl)-5-methyl-2-azabicyclo[3.1.0]hexane-3-carboxamide]
19 | < 1 | Cc1cc(F)c(Br)nc1NC(=O)[C@@H]1C[C@@]2(C)C[C@H]2N1C(=O)Cn1nc(C(N)=O)c2cc(-c3cnc(CO)nc3)nc(C)c21 [Compound 167, (1R,3S,5R)—N-(6-bromo-5-fluoro-3-methylpyridin-2-yl)-2-(2-{3-carbamoyl-5-[2-(hydroxymethyl)pyrimidin-5-yl]-7-methylpyrazolo[3,4-c]pyridin-1-yl}acetyl)-5-methyl-2-azabicyclo[3.1.0]hexane-3-carboxamide]
20 | < 1 | CC(=O)c1cn(CC(=O)N2[C@H](C(=O)Nc3nc(Br)ccc3C)C[C@@]3(C)C[C@@H]23)c2c(C)cc(-c3cnc4cc(C5CC5)nn4c3)cc12 [Compound 195, (1R,3S,5R)-2-(2-(3-acetyl-5-(2-cyclopropylpyrazolo[1,5-a]pyrimidin-6-yl)-7-methyl-1H-indol-1-yl)acetyl)-N-(6-bromo-3-methylpyridin-2-yl)-5-methyl-2-azabicyclo[3.1.0]hexane-3-carboxamide]
21 | < 1 | CC(=O)c1nn(CC(=O)N2[C@H](C(=O)Nc3nc(C(F)(F)F)ccc3C)C[C@@]3(C)C[C@@H]23)c2ccc(-c3cnc4cc(C)nn4c3)cc12 [Compound 212, (1R,3S,5R)-2-(2-(3-acetyl-5-(2-methylpyrazolo[1,5-a]pyrimidin-6-yl)-1H-indazol-1-yl)acetyl)-5-methyl-N-(3-methyl-6-(trifluoromethyl)pyridin-2-yl)-2-azabicyclo[3.1.0]hexane-3-carboxamide]
